Test results: PubChem BioAssay AID1963423 (Molecular Pharmacology Branch, DTP, NCI, 2024)

Tested on: 439559-082-T-J2-PDC complex spheroid growth
Test: Anticancer human tumor 439559-082-T-J2-PDC patient-derived colon adenocarcinoma cell line growth inhibition [Asc]
Settings: for IC50: curve of first compound; for viability, T/C: stronger effect = lower value
Protocol: Multicellular complex tumor spheroid response to apoptosis pathway targeting inhibitors Alrizomadlin, Pelcitoclax, and Dasminapant in combination with a variety of drugs and investigational agents in selected tumor cell lines
The MDM2 inhibitor alrizomadlin, the Bcl-2/Bcl-xL inhibitor pelcitoclax, and the IAPs inhibitor dasminapant were evaluated both individually and in combination with standard of care and investigational anticancer small molecules within a complex spheroid model of solid tumors. . Complex spheroids include a stromal component modeled by human endothelial cells (HUVEC) and fibroblasts modeled by human mesenchymal stem cells (MSCs). The concentration ranges selected for each drug and investigational agent were based upon clinically achievable concentrations if the clinical Cmax of the agent was known.
Compounds. The drugs and investigational agents: alrizomadlin (APG-115; NSC831270), pelcitoclax (APG-1252; NSC835773), dasminapant (APG-1387;NSC834197), TAK-243 (NSC785004), copanlisib (NSC809693), olaparib (NSC753686), talazoparib (NSC767125), cobimetinib (NSC 768068), eltanexor (KPT-8602, NSC 794443), abemaciclib (NSC 768073), sotorasib (NSC818433), adagrasib (NSC 831453), MRTX-1133 (NSC 836407), Iadademestat (ORY1001, NSC 806812), and RMC-4630 (NSC839698), were obtained from the NCI Developmental Therapeutics Program Chemical Repository. The FDA-approved anticancer drug set is available from the Developmental Therapeutics Program at https://dtp.cancer.gov/organization/dscb/obtaining/available plates.htm. […] The stock solutions were prepared in dimethyl sulfoxide (DMSO, Sigma-Aldrich, St. Louis, MO, cat. D2650) at 800-fold the tested concentration and stored at -70 degrees C prior to their use. All drugs and investigational agents were tested over a range starting from a high concentration at or near the clinical Cmax and decreasing in half-log increments. If the clinical Cmax for an agent had not been determined, the highest concentration tested was 10 microM.
The patient-derived cancer (PDC) cell lines include five colon adenocarcinomas: 186277-243-T-J2-PDC, 616215-338-R-J1-PDC, 439559-082-T-J2-PDC, 463943-066-T-J2-PDC, and 519858-162-T-J1-PDC; three pancreatic carcinomas: 323965-272-R-J2-PDC, 521955-158-R6-J3-PDC, and 521955-158-R2-J5-PDC; two uterine sarcomas: 327498-152-R-J2-PDC and 993429-296-R-J1-PDC; two rhabdomyosarcomas: 755483-174-R-J1-PDC and 772245-204-R-J1-PDC; two soft tissue sarcomas: 126254-015-R-J1-PDC and 494315-158-R-J1-PDC; two malignant fibrous histiocytomas: 317291-083-R-J1-PDC and 596521-263-R-J1-PDC; two breast carcinomas: 171881-019-R-J1-PDC and 885512-296-R-J2-PDC; and one ovarian carcinoma: 6556581-035-R-J-PDC were obtained from the NCI PDMR, (https://pdmr.cancer.gov). The established cell lines HSSY-2 synovial sarcoma (RRID:CVCL 8719), SYO-1 synovial sarcoma (RRID:CVCL_7146), MPNST malignant peripheral neural sheath tumor were obtained from the Sloan Kettering Institute. The following established cell lines were purchased from the American Type Culture Collection (ATCC, Manassas, VA), Sor the received from the NCI repository:, PANC-1 pancreatic carcinoma (CRL-1469, RRID:CVCL_0480), OVCAR-5 ovarian carcinoma (RRID:CVCL_1628), OVCAR-8 ovarian carcinoma (RRID:CVCL_1629), , MCF-7 breast carcinoma (CRL-12584, RRID:CVCL_0031), MDA-MB-231 breast carcinoma (CRL-12532, RRID:CVCL_0062), NCI-H1876 small cell lung carcinoma (CRL-5902, RRID:CVCL_1503), NCI-H510A small cell lung carcinoma (HTB-184, RRID:CVCL_1565), NCI-H1417 (CRL-5869, RRID:CVCL_1469), and NCI-H196 small cell lung carcinoma (CRL-5823, RRID:CVCL_1509). Dr. Peter Houghton (Greehey Children's Cancer Research Institute, University of Texas Health Science Center, San Antonio, TX) provided Rh-18 rhabdomyosarcoma (RRID:CVCL_1659). Pooled donor human umbilical vein endothelial cells (HUVEC, Lonza, cat. CC-2519) and human mesenchymal stem cells (hMSC, Lonza, cat. PT-2501) were purchased from Lonza (Walkersville, MD).
Cell Culture. […]

[1] = second compound 0.03 µM, first compound 0.00316 µM
[2] = second compound 0.03 µM, first compound 0.01 µM
[3] = second compound 0.03 µM, first compound 0.0316 µM
[4] = second compound 0.03 µM, first compound 0.1 µM
[5] = second compound 0.03 µM, first compound 0.316 µM
[6] = second compound 0.03 µM, first compound 1 µM
[7] = second compound 0.0949 µM, first compound 0.00316 µM
[8] = second compound 0.0949 µM, first compound 0.01 µM
[9] = second compound 0.0949 µM, first compound 0.0316 µM
[10] = second compound 0.0949 µM, first compound 0.1 µM
[11] = second compound 0.0949 µM, first compound 0.316 µM
[12] = second compound 0.0949 µM, first compound 1 µM
[13] = second compound 0.3 µM, first compound 0.00316 µM
[14] = second compound 0.3 µM, first compound 0.01 µM
[15] = second compound 0.3 µM, first compound 0.0316 µM
[16] = second compound 0.3 µM, first compound 0.1 µM
[17] = second compound 0.3 µM, first compound 0.316 µM
[18] = second compound 0.3 µM, first compound 1 µM
[19] = second compound 0.949 µM, first compound 0.00316 µM
[20] = second compound 0.949 µM, first compound 0.01 µM
[21] = second compound 0.949 µM, first compound 0.0316 µM
[22] = second compound 0.949 µM, first compound 0.1 µM
[23] = second compound 0.949 µM, first compound 0.316 µM
[24] = second compound 0.949 µM, first compound 1 µM
[25] = second compound 3 µM, first compound 0.00316 µM
[26] = second compound 3 µM, first compound 0.01 µM
[27] = second compound 3 µM, first compound 0.0316 µM
[28] = second compound 3 µM, first compound 0.1 µM
[29] = second compound 3 µM, first compound 0.316 µM
[30] = second compound 3 µM, first compound 1 µM
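Further: spheroids exposed to agents for 7 days starting day 3 after seeding.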
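Wherever viability, T/C is given: percent of DMSO vehicle control viability with 100% = vehicle.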

| Structure (SMILES) | IC50 (second compound 0.03 µM) [µM] | IC50 (second compound 0.0949 µM) [µM] | IC50 (second compound 0.3 µM) [µM] | IC50 (second compound 0.949 µM) [µM] | IC50 (second compound 3 µM) [µM] | viability, T/C [1] [%] | viability, T/C [2] [%] | viability, T/C [3] [%] | viability, T/C [4] [%] | viability, T/C [5] [%] | viability, T/C [6] [%] | viability, T/C [7] [%] | viability, T/C [8] [%] | viability, T/C [9] [%] | viability, T/C [10] [%] | viability, T/C [11] [%] | viability, T/C [12] [%] | viability, T/C [13] [%] | viability, T/C [14] [%] | viability, T/C [15] [%] | also measured |
| --- | --- | --- | --- | --- | --- | --- | --- | --- | --- | --- | --- | --- | --- | --- | --- | --- | --- | --- | --- | --- | --- |
| CCN1CCN(Cc2ccc(Nc3ncc(F)c(-c4cc(F)c5nc(C)n(C(C)C)c5c4)n3)nc2)CC1 + CCN1C(C(=O)NC23CCC(C(=O)O)(CC2)CC3)C(c2cccc(Cl)c2F)C2(C(=O)Nc3cc(Cl)ccc32)C12CCCCC2 | > 1 | > 1 | > 1 | > 1 | > 1 | 107 | 105 | 94.4 | 88.9 | 85.7 | 83 | 104 | 107 | 98.8 | 80.7 | 94 | 84.8 | 99.1 | 106 | 115 | viability, T/C [16]: 87.2%; viability, T/C [17]: 86.8%; viability, T/C [18]: 85%; viability, T/C [19]: 99.2%; viability, T/C [20]: 102%; viability, T/C [21]: 114%; viability, T/C [22]: 93.5%; viability, T/C [23]: 96.7%; viability, T/C [24]: 90%; viability, T/C [25]: 87.5%; viability, T/C [26]: 94%; viability, T/C [27]: 105%; viability, T/C [28]: 80.7%; viability, T/C [29]: 87%; viability, T/C [30]: 84.7% |
| O=C(c1ccc(F)c(F)c1Nc1ccc(I)cc1F)N1CC(O)([C@@H]2CCCCN2)C1 + CCN1C(C(=O)NC23CCC(C(=O)O)(CC2)CC3)C(c2cccc(Cl)c2F)C2(C(=O)Nc3cc(Cl)ccc32)C12CCCCC2 | 0.223 | 0.233 | 0.235 | 0.172 | 0.0976 | 103 | 101 | 83.8 | 61.6 | 46.9 | 22.5 | 111 | 106 | 84.8 | 58.2 | 52.6 | 16.3 | 98.7 | 110 | 91.7 | viability, T/C [16]: 64.3%; viability, T/C [17]: 47.2%; viability, T/C [18]: 8.43%; viability, T/C [19]: 111%; viability, T/C [20]: 93.5%; viability, T/C [21]: 88.4%; viability, T/C [22]: 54.5%; viability, T/C [23]: 41.1%; viability, T/C [24]: 16.2%; viability, T/C [25]: 96.8%; viability, T/C [26]: 81.7%; viability, T/C [27]: 78.1%; viability, T/C [28]: 47%; viability, T/C [29]: 27%; viability, T/C [30]: 12.2% |
